In patent publication US8629177B2, “Nanoencapsulated delta-9-tetrahydrocannabinol” (Aphios Corporation, priority 2010, dated 2014):
Where two headings read alike, the source gives them in different places.

Tests used:
[1] = Stability of Δ9-THC in collection buffer compositions and at different pH; type: physicochemical
Protocol: (§1) Stability Studies: Shelf stability studies were conducted with Δ9-THC, Δ9-THC polymer nanospheres and formulations of the aforementioned. The following tests were performed: (i) physical appearance; and (ii) Δ9-THC content and integrity. Statistical analysis of the data sets were performed using SYSTAT®.
The composition of the buffer was determined from stability studies with Δ9-THC at different conditions. […] Stability experiments were also conducted with Δ9-THC at pH=4, 7 and 10. […] Experiments were also used to determine that a low concentration of PVA was adequate for […] and minimizing foaming in the collection buffer. The buffer was deareated to remove dissolved oxygen since Δ9-THC is very sensitive to oxygen. A 10% sucrose buffer was utilized based on prior experimental data for this and other projects to preserve particle integrity after lyophilization. Prior to lyophilization, these products were placed in a −80° C. freezer until they were frozen solid. Samples were then lyophilized for a 24 hour period. These samples were reconstituted in distilled, degasified water and were analyzed using HPLC and particle size analysis via dynamic light scattering. After lyophilization, particle sizes of THC-19 and THC-21 were reduced to 287 and 230 nm respectively, and the recovery efficiencies were 77% and 95% respectively.

[2] = 6-week stability of nanoencapsulated and naked Δ9-THC at 4, 25 and 40° C.; type: physicochemical; conditions: 4° C., 25° C. and 40° C.
Protocol: as §1
Stability studies were conducted on polymer nanoencapsulated Δ9-THC (THC-12-1) and naked Δ9-THC samples over a 6-week period at 4° C., 25° C. and 40° C.

[3] = tested on: Fischer rats; conditions: cited from earlier work

Q: Which results are given for `CCCCCc1cc(O)c2c(c1)OC(C)(C)[C@@H]1CCC(C)=C[C@@H]21` [Δ9-THC, delta-9-tetrahydrocannabinol]?
A: stability at pH=4, 7 and 10 ([1]; pH 4, 7, 10 compared): most stable at pH=4; stability in 10% sucrose/0.1% PVA solution with 40% ethanol ([1]; six day study, 40% ethanol): stable if 40% ethanol is introduced; stability in 10% sucrose/0.1% PVA solution ([1]; six day study, PVA-sucrose solution without sufficient ethanol (0%, 20%, 30%)): degrades in the PVA-sucrose solution; degradation by temperature ([2]; 6-week period): degrades almost equally at each temperature; degradation after 6 weeks ([2]; after 6 weeks): most of the Δ9-THC is degraded; LD50 ([3]; females, orally, sesame oil vehicle): 730 mg/kg; LD50 ([3]; males, females, i.v.): 40 mg/kg; LD50 corrected for particulate losses and pulmonary adsorption ([3]; males, females, inhalation, corrected): 42 mg/kg; LD50 ([3]; males, females, inhalation): 105.7 mg/kg; LD50 ([3]; males, orally, sesame oil vehicle): 1,270 mg/kg; LD50 ([3]; males, orally, sesame oil, 1% polysorbate 80, saline emulsion): 800 mg/kg
